Target: Muscarinic acetylcholine receptor M1 (Oryctolagus cuniculus)
Test: Efficacy at muscarinic acetylcholine receptor M1 measured by the ability to inhibit the electrically stimulated twitch of the rabbit vas deferens

With CCCCCCSc1nsnc1C1=CCCN(C)C1 [5-(4-Hexylsulfanyl-[1,2,5]thiadiazol-3-yl)-1-methyl-1,2,3,6-tetrahydro-pyridine; oxalic acid] the IC50 was 1 pM.

— BindingDB's records for doi:10.1021/jm00100a005 (Eli Lilly, 1992)
